# Results reported in the supplement of paper PMC4862054.
# Where “and” joins values, the source holds several entries; their conditions need not be identical. Equal values may be shown once.
# Legend:
# Settings in all cases: incubation time: 72 h
# MDA-MB-436 [1] = experiment: normalised viability (% of control), CellTiter-Blue; higher = more viable cells (about 100 = DMSO control)
# Protocol: (§1)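 DSRT, CellTiter-Blue viability, 72 h incubation. Signal is normalised to DMSO and benzethonium chloride controls. Value is the normalised response at dose 3.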
# MFM-223 = experiment: as above
# Protocol: as §1
# HDQ-P1 = experiment: as above
# Protocol: as §1
# CAL-51 = experiment: as above
# Protocol: as §1
# DU-4475 [2] = experiment: as above
# Protocol: as §1
# MDA-MB-231 [3] = experiment: as above
# Protocol: as §1
# CAL-85-1 [4] = experiment: as above
# Protocol: as §1
# MDA-MB-453 = experiment: as above
# Protocol: as §1
# Hs578T [5] = experiment: as above
# Protocol: as §1
# HCC1937 = experiment: as above
# Protocol: as §1
# MDA-MB-468 = experiment: as above
# Protocol: as §1
# HCC1143 [6] = experiment: as above
# Protocol: as §1
# CAL-148 = experiment: as above
# Protocol: as §1
# HCC1599 [7] = experiment: as above
# Protocol: as §1
# SK-BR-3 [8] = experiment: as above
# Protocol: as §1
# CAL-120 = experiment: as above
# Protocol: as §1
# BT-549 [9] = experiment: as above
# Protocol: as §1
# BT-474 [10] = experiment: as above
# Protocol: as §1
# MDA-MB-436 [11] = experiment: drug sensitivity score (DSS), CellTiter-Glo (DSS (AUC-based score)); higher = stronger drug effect (viability inhibition or cytotoxicity); extreme values may be limits of the assay
# Procedure, shortened: (§2)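 Breast cancer cell lines (20 µl suspension) were seeded into 384-well plates holding compound at 5 concentrations in 10-fold steps over a compound-specific 10,000-fold range, then incubated 72 h. CellTox Green fluorescence (485/520 nm) was read first, then CellTiter-Glo luminescence after 10 min at room temperature. Each plate was normalised to 0.1 % DMSO and a positive kill control. The drug sensitivity score was calculated from the area under the fitted dose-response curve.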
# DU-4475 [12] = experiment: as above
# Procedure, shortened: as §2
# MDA-MB-231 [13] = experiment: as above
# Procedure, shortened: as §2
# CAL-85-1 [14] = experiment: as above
# Procedure, shortened: as §2
# Hs578T [15] = experiment: as above
# Procedure, shortened: as §2
# HCC1143 [16] = experiment: as above
# Procedure, shortened: as §2
# HCC1599 [17] = experiment: as above
# Procedure, shortened: as §2
# SK-BR-3 [18] = experiment: as above
# Procedure, shortened: as §2
# BT-549 [19] = experiment: as above
# Procedure, shortened: as §2
# BT-474 [20] = experiment: as above
# Procedure, shortened: as §2
SMILES,normalised viability (MDA-MB-436 [1]; 100 nM),normalised viability (MFM-223; 100 nM),normalised viability (HDQ-P1; 10 nM),normalised viability (CAL-51; 10 nM),normalised viability (DU-4475 [2]; 10 nM),normalised viability (MDA-MB-231 [3]; 100 nM),normalised viability (CAL-85-1 [4]; 10 nM),normalised viability (MDA-MB-453; 10 nM),normalised viability (Hs578T [5]; 100 nM),normalised viability (HCC1937; 100 nM),drug sensitivity score (MDA-MB-436 [11]),drug sensitivity score (DU-4475 [12]),drug sensitivity score (MDA-MB-231 [13]),drug sensitivity score (CAL-85-1 [14]),drug sensitivity score (Hs578T [15]),drug sensitivity score (HCC1143 [16]),drug sensitivity score (HCC1599 [17]),drug sensitivity score (SK-BR-3 [18]),drug sensitivity score (BT-549 [19]),drug sensitivity score (BT-474 [20]),also measured
Cc1cc(Nc2cc(CN3CCOCC3)c3nc(C)c(Cc4ccc(Cl)cc4F)n3n2)n[nH]1,108%,67.9%,92.8%,95%,99.6%,102%,91.6%,91.1%,85.9%,101%,,,,,,,,,,,normalised viability (MDA-MB-468; 100 nM): 103%; normalised viability (HCC1143 [6]; 100 nM): 71.4%; normalised viability (CAL-148; 10 nM): 97.9%; normalised viability (HCC1599 [7]; 100 nM): 122%; normalised viability (SK-BR-3 [8]; 100 nM): 87.1%; normalised viability (CAL-120; 100 nM): 74.5%; normalised viability (BT-549 [9]; 100 nM): 93.5%; normalised viability (BT-474 [10]; 100 nM): 102%
O=P1(N(CCCl)CCCl)NCCCO1 (stereo not drawn) [Cyclophosphamide],,,,,,,,,,,0,0,0,0,0,0,0,0,0,0,normalised viability (MDA-MB-436 [1]; 400 nM): 101%; normalised viability (MFM-223; 400 nM): 91.1%; normalised viability (HDQ-P1; 40 nM): 97.9%; normalised viability (CAL-51; 40 nM): 107%; normalised viability (DU-4475 [2]; 40 nM): 103%; normalised viability (MDA-MB-231 [3]; 400 nM): 97.8%; normalised viability (CAL-85-1 [4]; 40 nM): 101%; normalised viability (MDA-MB-453; 40 nM): 110%; normalised viability (Hs578T [5]; 400 nM): 93%; normalised viability (HCC1937; 400 nM): 99.8%; normalised viability (MDA-MB-468; 400 nM): 109%; normalised viability (HCC1143 [6]; 400 nM): 90.2%; normalised viability (CAL-148; 40 nM): 103%; normalised viability (HCC1599 [7]; 400 nM): 109%; normalised viability (SK-BR-3 [8]; 400 nM): 91.6%; normalised viability (CAL-120; 400 nM): 85.6%; normalised viability (BT-549 [9]; 400 nM): 117%; normalised viability (BT-474 [10]; 400 nM): 118%
CNC(=O)c1ccc(N2C(=S)N(c3ccc(C#N)c(C(F)(F)F)c3)C(=O)C23CCC3)cc1F [RD162],,,,,,,,,,,0,0,0,0,0,0,0,0,0,3.77e-05,
COc1cc2c(NC3CCN(C(C)C)CC3)nc(N3CCC(F)(F)CC3)nc2cc1OCCCN1CCCC1 [UNC0642],,,,,,,,,,,4.42,0,3.72,5.86,0,0,0,2.71,0,1.75,
COC(=O)c1ccc2c(c1)NC(=O)/C2=C(\Nc1ccc(N(C)C(=O)CN2CCN(C)CC2)cc1)c1ccccc1 [BIBF 1120],98.9%,79.1%,122%,104%,114%,104%,99.9%,101%,104%,115%,,,,,,,,,,,normalised viability (MDA-MB-468; 100 nM): 111%; normalised viability (HCC1143 [6]; 100 nM): 88.2%; normalised viability (CAL-148; 10 nM): 100%; normalised viability (HCC1599 [7]; 100 nM): 91.3%; normalised viability (SK-BR-3 [8]; 100 nM): 91.6%; normalised viability (CAL-120; 100 nM): 95.4%; normalised viability (BT-549 [9]; 100 nM): 111%; normalised viability (BT-474 [10]; 100 nM): 130%
CCn1c(-c2nonc2N)nc2cnc(Oc3cccc(NC(=O)c4ccc(OCCN5CCOCC5)cc4)c3)cc21,,,,,,,,,,,1.31,0.276,3.83,0,6.04,0,0,4.64,5.62,5.28,
COc1cc(O)c2c(c1)/C=C/C[C@H](O)[C@H](O)C(=O)/C=C\C[C@H](C)OC2=O [(5Z)-7-Oxozeaenol],,,,,,,,,,,7.08,20,9.42,12.4,5.42,2,3.26,2.34,14,7.43,
CNC(=O)c1cccc(-c2ccc3c(N4CCOC[C@@H]4C)nc(N4CCOC[C@@H]4C)nc3n2)c1 [AZD2014],,,,,,,,,,,11.1,7.74,8.36,13.2,11.4,12.7,0.92,18.4,15.3,8.78,
Nc1cc(C(F)(F)F)c(-c2cc(N3CCOCC3)nc(N3CCOCC3)n2)cn1 [BKM-120],90.2%,84%,111%,98.5%,98.3%,83.6%,86.6%,96%,96.6%,112%,,,,,,,,,,,normalised viability (MDA-MB-468; 100 nM): 99.2%; normalised viability (HCC1143 [6]; 100 nM): 86.1%; normalised viability (CAL-148; 10 nM): 94.9%; normalised viability (HCC1599 [7]; 100 nM): 70.1%; normalised viability (SK-BR-3 [8]; 100 nM): 76.7%; normalised viability (CAL-120; 100 nM): 81.3%; normalised viability (BT-549 [9]; 100 nM): 96.8%; normalised viability (BT-474 [10]; 100 nM): 115%
CNC(=O)c1ccc(N2C(=S)N(c3ccc(C#N)c(C(F)(F)F)c3)C(=O)C2(C)C)cc1F [Enzalutamide],,,,,,,,,,,0,0,0,0,0,0,0,0,0,0,
CCc1c2c(nc3ccc(OC(=O)N4CCC(N5CCCCC5)CC4)cc13)-c1cc3c(c(=O)n1C2)COC(=O)[C@]3(O)CC [Irinotecan],89.2% and 99.7%,93.8% and 94.5%,102% and 126%,99.2% and 118%,115% and 123%,90.9% and 103%,90.9% and 99.3%,102% and 115%,97.9% and 90.4%,93.2% and 84.8%,7.54,4.98,0,0,0,0,1.9,4.28,4,1.83,normalised viability (MDA-MB-468; 100 nM): 102% and 108%; normalised viability (HCC1143 [6]; 100 nM): 89.1% and 112%; normalised viability (CAL-148; 10 nM): 86% and 102%; normalised viability (SK-BR-3 [8]; 100 nM): 80.2% and 85.2%; normalised viability (BT-549 [9]; 100 nM): 91.5% and 90%; normalised viability (BT-474 [10]; 100 nM): 110% and 106%
